Assay results reported in PMC6522912, “Evaluation of the published kinase inhibitor set to identify multiple inhibitors of bacterial ATP-dependent mur ligases” (Journal of Enzyme Inhibition and Medicinal Chemistry, 2019).
Read-outs that look alike come from different tables or passages of the source.

Assays:
E. coli MurF = E. coli MurF (Escherichia coli, UniProt P11880); assay: biochemical; conditions: for remaining activity at 100 µM: 0.25 h, read-out: RA [%] at 100 µM MurF
Experimental: (§1) Inhibition of the Mur ligases was determined using the malachite green assay, with slight modifications.
(§2) In all cases, the final concentration of DMSO was 5% (v/v). After incubation for 15 min at 37 °C, the enzyme reaction was terminated by addition of 100 µM Biomol green reagent, and the absorbance was measured at 650 nm after 5 min. All of the experiments were run in duplicate. Residual activities were calculated with respect to control assays without the tested compounds, but with the 5% DMSO carrier.
(§3) The published kinase inhibitor set compounds were evaluated for inhibition of MurC, D and F ligases from E. coli using the Malachite green assay, which detects orthophosphate generated during enzymatic reactions. To avoid non-specific inhibition due to aggregate formation, all of the compounds were tested in the presence of detergent (0.005% Triton-X114). The data are presented as the residual activities of these Mur ligases in the presence of 100 µM of each test compound (Supporting Information Table S1). […] Additionally, regarding the data of profiled compounds in large panels of human kinase assays[41]

E. coli MurD = E. coli MurD (Escherichia coli, UniProt P14900); assay: biochemical; conditions: for remaining activity at 100 µM: 0.25 h, Table S1, PKIS screening, read-out: RA [%] at 100 µM MurD
Sequence of E. coli MurD (P14900 whole entry): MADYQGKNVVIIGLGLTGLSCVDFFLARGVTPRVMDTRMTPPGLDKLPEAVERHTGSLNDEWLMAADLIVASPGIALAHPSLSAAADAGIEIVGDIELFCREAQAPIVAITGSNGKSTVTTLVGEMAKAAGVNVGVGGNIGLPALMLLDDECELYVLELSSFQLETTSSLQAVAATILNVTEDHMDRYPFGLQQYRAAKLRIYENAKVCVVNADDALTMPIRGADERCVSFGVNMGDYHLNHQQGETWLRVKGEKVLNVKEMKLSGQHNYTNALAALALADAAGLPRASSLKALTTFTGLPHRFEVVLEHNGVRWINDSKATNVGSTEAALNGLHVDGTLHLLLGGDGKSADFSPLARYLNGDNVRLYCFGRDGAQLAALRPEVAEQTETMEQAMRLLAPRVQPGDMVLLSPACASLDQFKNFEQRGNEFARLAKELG
Experimental: as §1, §2
The published kinase inhibitor set compounds were evaluated for inhibition of MurC, D and F ligases from E. coli using the Malachite green assay, which detects orthophosphate generated during enzymatic reactions. To avoid non-specific inhibition due to aggregate formation, all of the compounds were tested in the presence of detergent (0.005% Triton-X114). The data are presented as the residual activities of these Mur ligases in the presence of 100 µM of each test compound (Supporting Information Table S1).

E. coli MurC = E. coli MurC (Escherichia coli, UniProt P17952); assay: Malachite green inhibition assay, MurC; format: biochemical; conditions: for remaining activity at 100 µM: 0.25 h
Sequence of E. coli MurC (P17952 whole entry): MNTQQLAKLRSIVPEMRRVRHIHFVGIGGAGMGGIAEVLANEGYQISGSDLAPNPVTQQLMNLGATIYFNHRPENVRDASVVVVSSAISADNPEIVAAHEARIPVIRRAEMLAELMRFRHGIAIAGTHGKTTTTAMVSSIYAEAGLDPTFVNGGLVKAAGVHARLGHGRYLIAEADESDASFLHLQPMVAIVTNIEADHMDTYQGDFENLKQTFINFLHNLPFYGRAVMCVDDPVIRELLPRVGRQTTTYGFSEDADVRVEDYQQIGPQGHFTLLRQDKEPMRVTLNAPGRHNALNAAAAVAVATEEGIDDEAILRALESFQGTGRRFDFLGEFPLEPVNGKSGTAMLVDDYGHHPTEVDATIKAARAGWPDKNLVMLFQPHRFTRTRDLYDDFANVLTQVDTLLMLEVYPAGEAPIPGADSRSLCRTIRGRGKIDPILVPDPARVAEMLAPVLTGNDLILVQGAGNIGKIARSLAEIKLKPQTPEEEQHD
Experimental: as §1, §2, §3

[1] = Table S1, PKIS screening, read-out: RA [%] at 100 µM MurC

Sequence of E. coli MurF (P11880 whole entry): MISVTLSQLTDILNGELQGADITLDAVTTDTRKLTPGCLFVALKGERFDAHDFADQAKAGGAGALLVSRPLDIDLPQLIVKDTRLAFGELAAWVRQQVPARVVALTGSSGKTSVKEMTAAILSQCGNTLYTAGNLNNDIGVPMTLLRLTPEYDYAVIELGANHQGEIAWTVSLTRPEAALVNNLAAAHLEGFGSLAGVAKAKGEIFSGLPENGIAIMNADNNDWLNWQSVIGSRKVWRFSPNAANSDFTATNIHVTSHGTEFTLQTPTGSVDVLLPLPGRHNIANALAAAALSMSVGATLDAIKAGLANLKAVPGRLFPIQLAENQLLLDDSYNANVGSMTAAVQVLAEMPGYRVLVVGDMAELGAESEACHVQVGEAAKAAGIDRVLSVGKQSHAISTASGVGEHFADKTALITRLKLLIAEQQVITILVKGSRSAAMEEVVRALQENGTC

Compound	remaining activity at 100 µM (E. coli MurF; Table S1, PKIS screening) [%]	remaining activity at 100 µM (E. coli MurD) [%]	remaining activity at 100 µM (E. coli MurC; [1]) [%]	also measured
CNC(=O)c1ncccc1Nc1nc(Nc2cc3c(cc2OC)CCCN3C(=O)CN(C)C)nc2[nH]ccc12 [GSK2220400A]	81	84		remaining activity at 100 µM (E. coli MurC; read-out: RA [%] at 100 µM MurC, Table S1, PKIS screening): 69%
NS(=O)(=O)c1cccc(N/C=C2\C(=O)Nc3ccccc32)c1 [GW275616X]	83	88	84	
Cc1ccc2c(c1)C(=NNc1ccc(S(N)(=O)=O)cc1)C(=O)N2 [GW275944X]	83	87	92	
NS(=O)(=O)c1ccc(N/N=C2\C(=O)Nc3ccc(-c4cnco4)cc32)cc1 [GW276655X]	22	73	84	
CS(=O)(=O)Nc1ccc(N/C=C2\C(=O)Nc3ccccc32)cc1 [GW278681X]	77	89	71	
Cc1cc(Cl)cc2c1NC(=O)C2=NNc1ccc(S(N)(=O)=O)cc1 [GW279320X]	0	78	76	
NS(=O)(=O)c1ccc(N/N=C2\C(=O)Nc3ccc(Cl)cc32)cc1 [GW280670X]	76	99	100	
COc1cc2ncnc(Nc3ccc4c(cnn4Cc4ccccc4)c3)c2cc1OC [GW282449A]	56	62	53	
CN(C)c1cc2c(Nc3ccc4c(cnn4Cc4ccccc4)c3)ncnc2cn1 [GW282974X]	55	70	77	
c1ccc(COc2ccc(Nc3ncnc4ccc(-c5ccco5)cc34)cc2)cc1 [GW284372X]	100	80	56	
O=C1Nc2ccccc2/C1=C/Nc1ccc2[nH]c(=O)[nH]c2c1 [GW284408X]	86	86	105	
NS(=O)(=O)c1ccc(NN=C2C(=O)Nc3ccc(C(=O)NCCCn4ccnc4)cc32)cc1 [GW290597X]	100	92	63	
COc1ccc2[nH]c3c4[nH]c5ccc(OC)cc5c4c4c(c3c2c1)C(=O)NC4=O [GW296115X]	100	87	100	
NS(=O)(=O)c1ccc(N/C=C2\C(=O)Nc3ccc4ncsc4c32)cc1 [GW297361X]	86	76	107	
CC(C)c1ccc2c(c1)NC(=O)C2=NNc1ccc(S(N)(=O)=O)cc1 [GW300653X]	75	85	100	
NS(=O)(=O)c1ccc(NN=C2C(=O)Nc3ccc(C(=O)NCc4ccncc4)cc32)cc1 [GW300657X]	85	96	75	
NS(=O)(=O)c1ccc(N/N=C2\C(=O)Nc3ccc(C(=O)NCCc4c[nH]cn4)cc32)cc1 [GW300660X]	96	90	58	
O=C1Nc2ccccc2/C1=C/Nc1ccc(-n2cncn2)cc1 [GW301789X]	75	91	64	
CN(C)c1cc2c(Nc3ccc4nc(Cc5ccccc5)[nH]c4c3)ncnc2cn1 [GW301888X]	75	80	83	
O=C1Nc2ccc(I)cc2C1=Cc1cc(Br)c(O)c(Br)c1 [GW305074X]	78	92	100	
NS(=O)(=O)c1ccc(N/N=C2\C(=O)Nc3ccc4ncccc4c32)cc1 [GW305178X]	56	57	52	
C/C(Nc1ccc(S(N)(=O)=O)cc1)=C1/C(=O)Nc2ccccc21 [GW335962X]	88	76	72	
NS(=O)(=O)c1ccc(NN=C2C(=O)Nc3cccc(CCc4ccncc4)c32)cc1 [GW352430A]	37	90	64	

Compound	remaining activity at 100 µM (E. coli MurF; Table S1, PKIS screening) [%]	remaining activity at 100 µM (E. coli MurD) [%]	remaining activity at 100 µM (E. coli MurC; [1]) [%]	also measured
COC(=O)c1ccc2c(c1)C(=Cc1cc(Br)c(O)c(Br)c1)C(=O)N2 [GW405841X]	75	82	93	
O=C1Nc2ccc(C(=O)c3ccco3)cc2C1=Cc1cc(Cl)c(O)c(Cl)c1 [GW406108X]	79	85	74	
COC(=O)c1cncc(/C=C/c2c(C)cc(O)cc2C)c1 [GW406731X]	81	69	98	
Nc1nc(-c2ccc3c(c2)C(=Cc2cc(Br)c(O)c(Br)c2)C(=O)N3)cs1 [GW407323A]	41	54	64	
COc1cc2ncnc(Nc3ccc(C)c(O)c3)c2cc1OC [GW410563A]	100	92	60	
CN(C)c1ccc2c(c1)/C(=C/Nc1ccc(S(N)(=O)=O)cc1)C(=O)N2 [GW416469X]	79	89	76	
CC(C)COC(=O)c1ccc2c(c1)/C(=C/Nc1ccc(S(N)(=O)=O)cc1)C(=O)N2 [GW416981X]	67	100	60	
O=C1Nc2ccc(-c3cccnc3)cc2C1=Cc1cc(Br)c(O)c(Br)c1 [GW429374A]	16	51	30	
CNC(=O)Oc1cc(C)c(/C=C/c2cncc(C(=O)NC)c2)c(C)c1 [GW432441X]		69		remaining activity at 100 µM (E. coli MurF): 87%; remaining activity at 100 µM (E. coli MurC; read-out: RA [%] at 100 µM MurC): 68%
Fc1ccc(-c2nn3ccccc3c2-c2ccncc2)cc1 [GW434756X]	94	68	74	
Cc1cc(O)cc(C)c1/C=C/c1cncc(C(N)=O)c1 [GW435821X]	75	89	89	
Cc1cc(O)cc(C)c1/C=C/c1cncc(C(=O)OC(C)(C)C)c1 [GW439255X]	69	96	75	
Cc1ccc(O)cc1Nc1ccnc2cc(-c3ccccn3)ccc12 [GW440139B]				RA [%] at 100 µM MurF (E. coli MurF; Table S1, PKIS screening): 66%; RA [%] at 100 µM MurD (E. coli MurD): 73; RA [%] at 100 µM MurC (E. coli MurC; Table S1, PKIS screening): 73%
Cn1cc(C=C2C(=O)Nc3cccnc32)c2ccccc21 [GW441756X]	89	99	75	
Cc1cc(O)cc(C)c1/C=C/c1cncc(-c2nn[nH]n2)c1 [GW441806A]	90	91	70	
COc1ccccc1-c1cc(/C=C2\C(=O)Nc3ncc(Br)cc32)cc(Br)c1O [GW442130X]	67	84	100	
CNC(=O)c1cncc(/C=C/c2c(C)cccc2C)c1 [GW445012X]	54	83	85	
CNC(=O)c1cncc(/C=C/c2c(Cl)cccc2Cl)c1 [GW445014X]	77	80	81	
CNC(=O)c1cncc(/C=C/c2ccccc2C)c1 [GW445015X]	85	91	100	
CNC(=O)c1cncc(/C=C/c2ccccc2Cl)c1 [GW445017X]	90	87	68	
CCc1cccc(CC)c1/C=C/c1cncc(C(=O)NC)c1 [GW450241X]	76	74	67	
CS(=O)(=O)CCNCc1ccc(-c2ccc3ncnc(Nc4ccc(OCc5ccccc5)cc4)c3c2)o1 [GW458787A]	66	58	68	
Cc1cc(-c2ccccn2)cc(C)c1/C=C/c1cncc(-c2nn[nH]n2)c1 [GW459057A]	76	83	59	
